In patent US20200182861A1, “METHOD FOR DIFFERENTIATION OF PLURIPOTENT STEM CELLS INTO VASCULAR BED CELLS” (Hoffmann-La Roche Inc., priority 2011, published 2020):

Experiments:
PSCs [1] = experiment: Genome-wide gene expression analysis during differentiation; format: cell-based, human
[2] = test system: β-catenin-mediated TCF/LEF transcription; experiment: TCF/LEF reporter assay in human PA-1 reporter cells; format: cell-based; details: for dose-response activation curve: dose-response assay
Method: FIG. 19: Compound selection. TCF/LEF reporter assay in human PA-1 reporter cells (DeAlmeida et al., 2007). After the treatment of reporter cells with GSk3 inhibitors at indicated concentrations β-catenin-mediated TCF/LEF transcriptional activity was measured as luciferase activity. The Compound Cp21R7 induced highest luciferase activity at a concentration of 3 μM.
(§1) The potential of the most widely used commercial GSK30 inhibitors and CP21R7 to activate β-catenin-mediated TCF/LEF transcription in human PA-1 reporter cells (DeAlmeida et al., 2007) was evaluated. […] Unmodified PA-1 cells are used to measure cellular viability via ATP levels and GLI-luciferase responsive reporter PA-1 cells as counter screen to monitor changes in general transcriptional activity. […] On the outcome of the β-Catenin reporter assay, three GSk3β inhibitors namely BIO, CHIR and CP were exploited for their potential to drive vascular lineage commitment of human PSCs. In addition to the listed inhibitors we include SB216763 (SB) due to its structure similarity to CP (see FIG. 18). Pluripotent stem cells were (i) plated as single-cells on mTeSR1 medium supplemented with Y-27632 a Rho-kinase inhibitor (Watanabe et al., 2007); (ii) incubated in priming medium (N2B27 medium supplemented with a GSK303 inhibitor) and (iii) incubated in induction medium (StemPro SFM 34 medium supplemented with Vascular Endothelial Growth Factor (VEGF; Sumi et al., 2008)) as outlined above under 1 (i) and (ii).

[3] = test system: Human Embryonic Stem cells; experiment: Quantification of CD144+ stem cell-derived endothelial cells by image based high content analysis
Method: FIG. 2A: Quantification CD144+ Stem Cell-Derived Endothelial Cells by image based high content analysis (HCA). Human Embryonic Stem cells have been differentiated in monolayer conditions with different small molecules. Upper and middle panel: Day 1 priming medium with different compounds; Day 4 induction medium+VEGF-A 50 ng/ml. Carrier N2B27 alone (upper panel, left); Wnt3a 150 ng/ml added to the priming medium (upper panel, right); SB216763 6 μM added to the priming medium (middle panel, left), CHIR 9902 2 μM added to the priming medium (middle panel, right). Lower panels: Day 1 priming medium with 2 μM Compound 21 (CP21R7); Day 4 induction medium+VEGF-A 50 ng/ml (lower panel, left) and Day 4 induction medium+VEGF-A 50 ng/ml+Forskolin 5 μM (lower panel, right). DAPI (cell nuclei) CD144 (membrane staining).
FIG. 2B: Quantification graph: Percent CD144+ positive cells.
(§2) Before the enzymatic dissociation of hPSC colonies using StemPro Accutase (Invitrogen) cells are preincubated for one hour with 10 μM ROCK-Inhibitor Y27632. 35.000 single hPSCs per cm^2 are plated onto growth factor reduced Matrigel (BD bioscience) coated cell culture plates in TeSR2 medium supplemented with 10 μM ROCK-Inhibitor. On day1 attachment medium is exchanged to N2B27 (Gibco) medium supplemented with (a) 2 μM Compound 21 (CP21R7) or (b) 1 μM Compound 21 (CP21R7) and 25 ng/ml BMP4 (R&D Systems). Cells are cultivated for additional 3 days without media change.
(§3) On day 4 priming medium is replaced with StemPro-34 SFM medium (Invitrogen) supplemented with (a) 50 ng/ml VEGF and 5 μM Forskolin or (b) 200 ng/ml VEGF and 2 μM Forskolin. On day 5 induction medium is withdrawn and cells are used for MACS separation of CD144+ cells.

human PSCs = experiment: Endothelial induction by GSK3 inhibitors, flow cytometric VE-Cadherin (CD144) expression on day 5; format: cell-based
Method: as §1
The Following GSK3 Inhibitors were Used: CHIR99021 GSK3-Inhibitor: Catalogue Number: 361559 from Merck Millipore SB216763 GSK3-Inhibitor: Catalogue Number: 361566 from Merck Millipore BIO GSK3-Inhibitor: Catalogue Number: 3 361550 from Merck Millipore CP21R7: 3-(3-Amino-phenyl)-4-(1-methyl-1H-indol-3-yl)-pyrrole-2,5-dione (also referred to as “compound 21” herein; see e.g. L. Gong et al; Bioorganic & Medicinal Chemistry Letters 20 (2010), 1693-1696).
Proliferation into vascular bed cells was detected on Day 5. Vascular identity is confirmed by the expression of vascular endothelial-cadherin (VE-Cadherin). The capability to induce vascular bed cells was determined by VE-Cadherin (CD144) expression on day 5 (FIG. 19). […] Remarkably, up to 35% of cells expressed CD144 at an optimal concentration of 1 μM from day five on. […] CHIR, which has a divergent chemical structure than CP induced CD144 expression also in a parabolic curve reaching an optimum at 6 μM. […] Although, SB and CP share the same chemical backbone, divergent moieties may influence the chemical properties, e.g. cellular permeability or solubility. In carrier treated cells no VE-CADHERIN expression was detected (FIG. 19).

hESCs = experiment: Direct comparison BIO versus CP21R7 to differentiate hESCs into CD144+ endothelial cells; format: cell-based, human
Method: FIG. 6: Direct comparison BIO versus CP21R7 to differentiate hESCs into endothelial cells CD144+. hESCs have been differentiated in monolayer conditions in parallel using different concentrations at Day 1 (0 μM, 0.5 μM, 1 μM, 2 μM) for the BIO or for the COMPOUND 21 (CP21R7) as supplement to the carrier medium N2B27, followed at Day 4 with induction medium VEGF-A 50 ng/ml and Forskolin 5 μM for all the conditions.
The method of Tatsumi et al employs the BIO inhibitor at different concentrations as supplement to the N2B27. Although Tatsumi et al. describes that the pluripotent stem cells were differentiated to endothelial cells with about 20% efficiency (determined by endothelial cells expressing the surface marker CD144), we were not able to reproduce such results.

Unmodified PA-1 cells = experiment: Cellular viability via ATP levels in unmodified PA-1 cells; format: cell-based, human
Method: as §1

[4] = test system: human embryonic stem cell; details: 5 μM 3 days, then VEGF 2 days; Tatsumi et al.; cited from earlier work
[5] = test system: GLI-luciferase responsive reporter PA-1 cells; experiment: GLI-luciferase responsive reporter PA-1 cells counter screen (general transcriptional activity); format: cell-based, human
Method: as §1

PSCs [6] = experiment: Immunostainings of differentiation markers over time; format: cell-based, human
Description: Immunostainings of SOX17, OCT4, T-BRACHYURY, PECAM-1 and VE-CADHERIN support the transcriptome data (Quantification shown in FIG. 9). The protein expression of the pan-mesodermal marker T-BRACHYURY confirms an intermediate PS-like cell stage. […] The vast majority of cells reached a T-BRACHYURY peak expression on day three. On day four the expression diminished and disappeared, thereby mimicking its specific embryonic expression pattern (Tam and Loebel, 2007). Loss of pluripotency was monitored by the time-dependent decline of OCT4 expression. […] Induction of endothelial cell identity was determined by the co-expression of platelet-endothelial cell adhesion molecule-1 (PECAM1) and VE-CADHERIN. Endothelial marker expression was detected upon administration of VEGF on day 4 (FIG. 9). […] Our differentiation system enables high throughput derivation of endothelial cells within 5 days through a transient emergence of primitive streak cells.

pluripotent stem cells [7] = experiment: Flow cytometry of CD144+ endothelial cells after monolayer differentiation; format: cell-based, human
Method: FIG. 3: Flow Cytometry analysis of the pluripotent stem cell-derived CD144+ endothelial cells. Endothelial cells differentiated in monolayer conditions (priming medium 2 μM CP21R7, induction medium VEGF-A 50 ng/ml and Forskolin 5 μM) were analyzed before and after MACS sorting for the CD144+ expression. Before MACS Sorting 32.5% CD144+ endothelial cells and after MACS sorting 96.5% CD144+ endothelial cells.
as §2, §3

SC-derived ECs = experiment: Tube formation assay of SC-derived ECs on Matrigel matrix; format: cell-based, human; details: data not shown
Method: In order to define the endothelial phenotype more profoundly, the angiogenic potential, the ability to uptake DiI-acetylated low-density lipoprotein (DiI-ac-LDL) was assessed and the dynamic modulation of the barrier function was monitored. For tube formation assays SC-derived ECs were seeded onto a Matrigel matrix.

pluripotent stem cells [8] = experiment: VSMC induction, flow cytometric CD31/CD140b distribution; format: cell-based, human; details: induction medium replaced by RPMI medium with 0.5 μM IWR
Description: Cell types differed by morphology as well as by marker expression. Cobblestone-like cells with tight cell-cell contacts expressed the endothelial-specific marker VE-Cadherin. Flattened and spindle-like shaped cells stained positive for Smooth Muscle Actin (αSMA), indicating a vascular smooth muscle cell (VSMC) identity. In flow cytometric analysis cells separated into a major fraction of CD31^+/CD140^+ cells and minor fraction of CD31^−/CD140b^+ cells (FIG. 10).

Q: For VEGF, which “upregulation of endothelial markers CD34, PECAM1, CDH5 and vWF” value (PSCs [1]; within the first 24 hours upon VEGF, data not shown) is on record?
A: The value was “more than 100 fold”.

Q: For `Cn1cc(C2=C(c3ccc(Cl)cc3Cl)C(=O)NC2=O)c2ccccc21` [SB216763, 3-(2,4-Dichlorophenyl)-4-(1-methyl-1H-indol-3-yl)-1H-pyrrole-2,5-dione, reference compound], which TCF/LEF luciferase expression ([2]; concentration dependent administration) is on record?
A: Its TCF/LEF luciferase expression is “negligible”.

Q: What about the “CD144+ cells” value ([3]; 6 μM added to the priming medium, day 4 induction medium + VEGF-A 50 ng/ml) of the same molecule?
A: The value was 0.5%.

Q: What about the CD144 expression (human PSCs; day 5, flow cytometry) of the same molecule?
A: The CD144 expression was “no CD144 expression was observed”.

Q: For `O=C1Nc2cc(Br)ccc2/C1=C1/Nc2ccccc2/C1=N\O` [BIO, (2′Z, 3′E)-6-bromoindirubin-3′-oxime], which “maximum expression of the CD144” value (hESCs; 0.5 μM at Day 1 in N2B27, induction medium VEGF-A 50 ng/ml and Forskolin 5 μM) is on record?
A: The value was 5%.

Q: What about the cytotoxicity (hESCs; already at concentrations of 1 μM) of the same molecule?
A: The cytotoxicity was “strong cytotoxicity”.

Q: And the “toxicity to the cells” value (hESCs; the other concentrations (1 μM, 2 μM))?
A: Its value is “toxic to the cells”.

Q: What about the dose-response activation curve [2] of the same molecule?
A: The dose-response activation curve was “steep activation curve”.

Q: And the toxicity (Unmodified PA-1 cells; concentration of 10 μM, data not shown)?
A: The toxicity was “highly toxic”.

Q: What about the “toxicity on single cells” value (human PSCs; data not shown) of the same molecule?
A: Its value is “toxic on single cells”.

Q: And the “efficiency determined by endothelial cells expressing the surface marker CD144” value [4]?
A: The value was “about 20%”.

Q: And the GLI-mediated luciferase activity ([5]; data not shown)?
A: Its GLI-mediated luciferase activity is “three-fold increase”.

Q: Which results are given for `Cn1cc(C2=C(c3cccc(N)c3)C(=O)NC2=O)c2ccccc21` [CP21R7, 3-(3-Amino-phenyl)-4-(1-methyl-1H-indol-3-yl)-pyrrole-2,5-dione]?
A: CD144 expression (hESCs; dose response 0.5 μM, 1 μM, 2 μM, induction VEGF-A 50 ng/ml and Forskolin 5 μM): up to 35%; maximum increased luciferase activity ([2]; at 3 μM): 566 fold; concentration of highest luciferase activity ([2]; bell-shaped curve): 3 µM; dose-response activation curve [2]: steep activation curve; SOX17+ cells (PSCs [6]; CP21 alone, day three): salt and pepper staining pattern of SOX17^+ cells; SOX17+ cells (PSCs [6]; combined application of CP and BMP4): prevented the appearance of endodermal SOX17^+ cells; T-BRACHYURY expression (PSCs [6]; treatment with CP and BMP4): induced T-BRACHYURY expression quickly after one day; CD144 expression, cells on day six (pluripotent stem cells [7]; priming 1 μM CP with 25 ng/ml BMP4, induction 200 ng/ml VEGF with 2 μM Forskolin): up to 85%; CD144+ endothelial cells before MACS sorting (pluripotent stem cells [7]; priming medium 2 μM CP21R7, induction medium VEGF-A 50 ng/ml and Forskolin 5 μM): 32.5%; CD144+ cells ([3]; 2 μM added to the priming medium, day 4 induction medium + VEGF-A 50 ng/ml): 40.2%; CD144+ cells ([3]; 2 μM added to the priming medium, induction medium + VEGF-A 50 ng/ml + Forskolin 5 μM): 54.6%; cell proliferation (Unmodified PA-1 cells; at maximum luciferase activity): only a modest gain of cell proliferation; optimal concentration for CD144 expression (human PSCs; bell-shaped / parabolic curve, day 5): 1 µM; cells expressed CD144 (human PSCs; optimal concentration of 1 μM, from day five on): up to 35%; general transcriptional activity [5]: minor increases of general transcriptional activity; mesoderm markers MIXL1, T/BRACHYURY, FGF4 and EOMES (PSCs [1]; 24 hours upon combined CP and BMP4 treatment): Upregulation; pluripotency markers NANOG, UIF1 and SOX2 (PSCs [1]; 24 hours upon combined CP and BMP4 treatment, data not shown): downregulated

Q: Which “tube formation, number of nodes, length of tubes” value (SC-derived ECs) does the source give for `C[S+]([O-])CCCCN=C=S` (centres unmarked) [Sulforaphane] here?
A: The value was “perturbed tube formation and reduced the number of nodes as well as the length of tubes”.

Q: Which “distribution of CD31+/CD140b− and CD31−/CD140b+ cells” value (pluripotent stem cells [8]) does the source give for `O=C(Nc1cccc2cccnc12)c1ccc(N2C(=O)[C@@H]3[C@H](C2=O)[C@@H]2C=C[C@H]3C2)cc1` [IWR] here?
A: Its value is “inverted distribution”.

B1: Wnt3a: Wnt3a added to the priming medium (protein, UniProt P56704 19-352, looked up)
Protein Wnt-3a: SYPIWWSLAVGPQYSSLGSQPILCASIPGLVPKQLRFCRNYVEIMPSVAEGIKIGIQECQHQFRGRRWNCTTVHDSLAIFGPVLDKATRESAFVHAIASAGVAFAVTRSCAEGTAAICGCSSRHQGSPGKGWKWGGCSEDIEFGGMVSREFADARENRPDARSAMNRHNNEAGRQAIASHMHLKCKCHGLSGSCEVKTCWWSQPDFRAIGDFLKDKYDSASEMVVEKHRESRGWVETLRPRYTYFKVPTERDLVYYEASPNFCEPNPETGSFGTRDRTCNVSSHGIDGCDLLCCGRGHNARAERRREKCRCVFHWCCYVSCQECTRVYDVHTCK
Q: For B1, which “CD144+ cells” value ([3]; 150 ng/ml added to the priming medium, day 4 induction medium + VEGF-A 50 ng/ml) is on record?
A: The value was 0.8%.
